This test deals with collagen type 1. The test can be described thus: in vitro dermal fibroblast collagen assay (collagen 1 immunolabeling, flow cytometry). The format is cell-based, human. The settings on record: for Collagen 1 expression relative to untreated (%): normal human dermal fibroblasts, 72 hours, mean (n = 4), untreated = 100%. As to the method: Amidinobenzyl Benzylsulfonyl D-Seryl Homophenylalaninamide Acetate (ABSHA) was evaluated for its effect on collagen type 1. This was done using an in vitro dermal fibroblast collagen assay.
Normal human dermal fibroblasts were seeded in cell culture medium (Dulbecco's Modified Eagle Medium supplemented with 10% serum and 1% antibiotics) and allowed to adhere in a humidified cell incubator maintaining 37° C. and 5% CO2. Afterwards, the cells were starved with culture medium without serum for 16-24 hours to synchronize the cells their cell cycle. The starvation medium was removed and cell culture medium+SYN®-UP at various concentrations was added to the cells. The cells were treated for 72 hours. The cells were then fixated and immunolabeled with antibodies specific for collagen 1. These labeled cells were analyzed using flow cytometry and compared to the untreated ones (medium without SYN®-UP).
Table 1. […] Data are normalized to the untreated control (100%) and expressed as the mean±SD (n=4).
On the technique in general: Flow cytometry measures light scatter and fluorescence of single cells or particles in a stream.

Consider one compound from patent US20250161180A1, “NOVEL USE OF 4-AMIDINO BENZYLAMINES” (DSM IP Assets B.V., priority 2022, published 2025).

As to `N=C(N)c1ccc(CNC(=O)C(CCc2ccccc2)NC(=O)C(CO)NS(=O)(=O)Cc2ccccc2)cc1` [ABSHA, Amidinobenzyl Benzylsulfonyl D-Seryl Homophenylalaninamide Acetate], the “effect on collagen type 1 expression (in words)” value (in vitro dermal fibroblast collagen assay) is reported as “increases collagen expression”. The “Collagen 1 expression relative to untreated (%)” value is, setting by setting: (1 μM) 144%; (5 μM) 160%; (25 μM) 185%; (concentration printed only as "μM" (figure missing)) 188%.
